For one compound, IC50 results are on record in ChEMBL document CHEMBL1139733, “Aminopyridine carboxamides as c-Jun N-terminal kinase inhibitors: targeting the gatekeeper residue and beyond” (Bioorg Med Chem Lett, 2006).

Experiment [1] addresses Mitogen-activated protein kinase 8 (Homo sapiens, UniProt P45983). The experiment is described as follows: Inhibition of JNK1 by ATF2 phosphorylation assay. Format: functional.
Experiment [2] addresses Mitogen-activated protein kinase 9 (Homo sapiens, UniProt P45984). The experiment can be described thus: Inhibition of JNK2 by ATF2 phosphorylation assay. Format: functional.
Experiment [3] deals with c-Jun N-terminal kinase, JNK (Homo sapiens, UniProt P45983+P53779+P45984). The experiment is described as follows: Inhibition of PcJun phosphorylation in HepG2 cells. Format: functional, cell-based.

Mitogen-activated protein kinase 8, sequence (P45983 whole entry): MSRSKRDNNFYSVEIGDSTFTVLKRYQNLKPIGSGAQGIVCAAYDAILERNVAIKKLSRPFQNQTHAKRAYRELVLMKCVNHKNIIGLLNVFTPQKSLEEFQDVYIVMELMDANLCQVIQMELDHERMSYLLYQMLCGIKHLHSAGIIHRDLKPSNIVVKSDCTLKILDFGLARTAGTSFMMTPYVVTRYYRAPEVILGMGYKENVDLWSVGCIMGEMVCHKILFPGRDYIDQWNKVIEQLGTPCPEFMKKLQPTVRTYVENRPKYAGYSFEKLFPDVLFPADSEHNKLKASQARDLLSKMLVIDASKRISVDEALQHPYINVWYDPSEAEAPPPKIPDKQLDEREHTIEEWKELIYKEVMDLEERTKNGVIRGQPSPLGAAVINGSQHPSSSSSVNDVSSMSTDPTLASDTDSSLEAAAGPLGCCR
Mitogen-activated protein kinase 9, sequence (P45984 whole entry): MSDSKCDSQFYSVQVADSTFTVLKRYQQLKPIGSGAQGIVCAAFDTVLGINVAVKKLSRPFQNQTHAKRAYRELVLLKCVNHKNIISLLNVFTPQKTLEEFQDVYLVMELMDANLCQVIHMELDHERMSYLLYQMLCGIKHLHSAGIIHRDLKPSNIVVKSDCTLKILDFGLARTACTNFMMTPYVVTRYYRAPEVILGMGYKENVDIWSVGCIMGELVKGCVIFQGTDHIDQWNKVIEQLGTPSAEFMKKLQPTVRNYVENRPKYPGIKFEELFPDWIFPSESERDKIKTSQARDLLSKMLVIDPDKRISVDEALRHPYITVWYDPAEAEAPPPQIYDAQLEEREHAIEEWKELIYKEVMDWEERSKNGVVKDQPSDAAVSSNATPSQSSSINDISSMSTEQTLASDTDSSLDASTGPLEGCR

As a reminder, the IC50 is the concentration that inhibits the measured activity by half. As for `C=Cc1c(N)cc(C(=O)NCc2ccc(S(C)(=O)=O)cc2)nc1OCC`, the IC50 in experiment [1] came to 1.18 µM; in experiment [2], 1.46 µM; in experiment [3] it was 4.63 µM.
